SMILES strings stand for the structures.

Common to all, as to test: HPLC-MS of products after alkaline phosphatase
Common to all, as to assay type: biochemical
What all share (settings): 100 mM UDP-galactose, 10 mM MgSO4, pH 8.0 protein buffer, 30 °C, 16 h

Test [1] deals with T1, PhTPS4 (Pyropia haitanensis, UniProt U3GP00).
T1 construct: E. coli BL21, pET-28a or pET-28a-sumo, His tag, sumo-His tag cut before assay; full-length ORF 1008 aa with N-terminal CBM20

Test [2] addresses T2, PhTPS3 (Pyropia haitanensis, UniProt A0A0A7PA46).
T2 construct: E. coli BL21, pET-28a or pET-28a-sumo, His tag, sumo-His tag cut before assay; full-length ORF 1108 aa

In test [3] the target is T3, PhTPS1 (Pyropia haitanensis, UniProt T1UQ24).
T3 construct: E. coli BL21, pET-28a or pET-28a-sumo, His tag, sumo-His tag cut before assay; full-length ORF 1154 aa
T3 sequence (T1UQ24 entry or part of it): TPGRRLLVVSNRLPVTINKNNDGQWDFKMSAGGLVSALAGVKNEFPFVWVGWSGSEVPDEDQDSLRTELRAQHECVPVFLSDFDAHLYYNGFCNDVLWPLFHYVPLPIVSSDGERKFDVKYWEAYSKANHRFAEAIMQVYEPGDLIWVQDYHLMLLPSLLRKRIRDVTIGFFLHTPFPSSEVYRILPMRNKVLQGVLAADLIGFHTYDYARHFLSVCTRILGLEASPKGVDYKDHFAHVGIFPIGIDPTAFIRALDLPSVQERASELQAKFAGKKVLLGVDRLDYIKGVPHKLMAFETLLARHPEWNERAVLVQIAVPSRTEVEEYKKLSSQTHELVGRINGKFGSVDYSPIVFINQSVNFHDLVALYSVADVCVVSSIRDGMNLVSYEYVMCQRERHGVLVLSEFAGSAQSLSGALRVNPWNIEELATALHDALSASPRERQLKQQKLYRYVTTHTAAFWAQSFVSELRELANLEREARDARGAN

T1 sequence (U3GP00 entry or part of it): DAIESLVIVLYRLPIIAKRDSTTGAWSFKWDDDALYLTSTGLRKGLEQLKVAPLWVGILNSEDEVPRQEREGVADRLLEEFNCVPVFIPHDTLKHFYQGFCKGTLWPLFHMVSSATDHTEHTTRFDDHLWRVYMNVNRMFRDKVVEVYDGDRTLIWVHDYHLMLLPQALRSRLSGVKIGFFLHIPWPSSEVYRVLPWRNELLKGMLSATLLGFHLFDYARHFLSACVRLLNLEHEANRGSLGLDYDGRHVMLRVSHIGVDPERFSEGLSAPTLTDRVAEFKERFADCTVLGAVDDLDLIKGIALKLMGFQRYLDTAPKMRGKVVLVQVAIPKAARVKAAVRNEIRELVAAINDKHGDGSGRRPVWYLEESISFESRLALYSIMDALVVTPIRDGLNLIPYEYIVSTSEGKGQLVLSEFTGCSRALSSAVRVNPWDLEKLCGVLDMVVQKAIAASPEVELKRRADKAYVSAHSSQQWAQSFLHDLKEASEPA
T2 sequence (A0A0A7PA46 entry or part of it): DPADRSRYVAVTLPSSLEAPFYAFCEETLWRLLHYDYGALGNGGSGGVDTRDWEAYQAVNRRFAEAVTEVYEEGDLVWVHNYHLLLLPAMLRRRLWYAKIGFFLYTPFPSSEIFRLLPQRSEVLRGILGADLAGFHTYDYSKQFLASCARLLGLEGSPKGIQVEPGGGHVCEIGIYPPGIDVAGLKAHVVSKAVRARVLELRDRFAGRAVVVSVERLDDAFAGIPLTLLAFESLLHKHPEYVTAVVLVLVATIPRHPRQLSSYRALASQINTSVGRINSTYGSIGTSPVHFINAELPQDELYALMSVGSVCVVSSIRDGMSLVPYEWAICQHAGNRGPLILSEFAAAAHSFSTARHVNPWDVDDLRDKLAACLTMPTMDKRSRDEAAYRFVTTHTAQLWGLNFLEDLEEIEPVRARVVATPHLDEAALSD

Take `O=P(O)(O)OC[C@H](O)CO` [G3P]: the “HPLC-MS of products after alkaline phosphatase” value was “UDP-Gal and G3P were allowed to react with them” in test [1]; “UDP-Gal and G3P were allowed to react with them” in test [2]; “UDP-Gal and G3P were allowed to react with them” in test [3].

The record behind these values is article PMC6642608, “Putative trehalose biosynthesis proteins function as differential floridoside-6-phosphate synthases to participate in the abiotic stress response in the red alga Pyropia haitanensis” (BMC Plant Biology, 2019).
